From ChEMBL document CHEMBL2396568, “An insight into synthetic Schiff bases revealing antiproliferative activities in vitro” (Bioorg Med Chem, 2013)

Experiments:
[1] = test system: KB; assay: Antiproliferative activity against wild-type human KB cells after 24 hrs by MTS assay; format: functional, cell-based
[2] = test system: KB; assay: Antiproliferative activity against hydroxyurea-resistant human KB cells after 24 hrs by MTS assay; format: functional, cell-based
[3] = test system: L1210; assay: Antiproliferative activity against mouse L1210 cells after 24 hrs by MTS assay; format: functional, cell-based; conditions: L1210, 24 h
[4] = Antiproliferative activity against human T-lymphoblastic leukemia cells by MTT assay; format: functional; conditions: Leukemia cell, read-out: CD50 (the source's name)
[5] = test system: Artemia salina; assay: Toxicity in brine shrimp; format: functional; conditions: read-out: ED50 (the source's name)
[6] = test system: MCF7; assay: Antiproliferative activity against doxorubicin-resistant human MCF7 cells after 72 hrs by neutral red uptake assay; format: functional, cell-based
[7] = test system: KB; assay: Antiproliferative activity against human KB cells after 72 hrs by neutral red uptake assay; format: functional, cell-based
[8] = test system: MCF7; assay: Antiproliferative activity against wild-type human MCF7 cells after 72 hrs by neutral red uptake assay; format: functional, cell-based
[9] = test system: K562; assay: Antiproliferative activity against human K562 cells by MTT assay; format: functional, cell-based
[10] = test system: HeLa; assay: Antiproliferative activity against human HeLa cells after 48 hrs by MTT assay; format: functional, cell-based
[11] = test system: A549; assay: Antiproliferative activity against human A549 cells after 48 hrs by MTT assay; format: functional, cell-based; conditions: A549, 48 h
[12] = test system: A549; assay: Antiproliferative activity against human A549 cells after 24 hrs by MTT assay; format: functional, cell-based; conditions: A549, 24 h
[13] = test system: HeLa; assay: Antiproliferative activity against human HeLa cells after 24 hrs by MTT assay; format: functional, cell-based
[14] = test system: MCF7; assay: Antiproliferative activity against human MCF7 cells after 24 hrs by MTT assay; format: functional, cell-based; conditions: MCF7, 24 h
[15] = test system: PC-3; assay: Antiproliferative activity against human PC3 cells after 24 hrs by MTT assay; format: functional, cell-based; conditions: PC-3, 24 h
[16] = test system: A2780; assay: Antiproliferative activity against human A2780 cells after 72 hrs by MTT assay; format: functional, cell-based; conditions: A2780, 72 h
[17] = test system: A2780; assay: Antiproliferative activity against cisplatin-resistant human A2780 cells after 72 hrs by MTT assay; format: functional, cell-based; conditions: A2780, 72 h
[18] = Antiproliferative activity against human SW707 cells after 72 hrs by sulforhodamine B assay; format: functional; conditions: SW707, 72 h, read-out: ID50 (the source's name)
[19] = Antiproliferative activity against human HCV29T cells after 72 hrs by sulforhodamine B assay; format: functional; conditions: read-out: ID50 (the source's name)
[20] = test system: CCRF-SB; assay: Antiproliferative activity against human CCRF-SB cells after 96 hrs by MTT assay; format: functional, cell-based
[21] = test system: CCRF-CEM; assay: Antiproliferative activity against human CCRF-CEM cells after 96 hrs by MTT assay; format: functional, cell-based
[22] = test system: WIL2-NS; assay: Antiproliferative activity against human WIL2-NS cells after 96 hrs by MTT assay; format: functional, cell-based
[23] = test system: MT4; assay: Antiproliferative activity against human MT4 cells after 96 hrs by MTT assay; format: functional, cell-based; conditions: MT4, 96 h
[24] = test system: SK-MEL-28; assay: Antiproliferative activity against human SK-MEL-28 cells after 96 hrs by MTT assay; format: functional, cell-based; conditions: SK-MEL-28, 96 h
[25] = test system: MCF7; assay: Antiproliferative activity against human MCF7 cells after 96 hrs by MTT assay; format: functional, cell-based; conditions: MCF7, 96 h
[26] = test system: HCT-116; assay: Antiproliferative activity against human HCT116 cells after 48 hrs by sulforhodamine B assay; format: functional, cell-based; conditions: HCT-116, 48 h
[27] = test system: HCT-116; assay: Selectivity ratio of IC50 for human HCT116 cells to IC50 for human Hep2 cells; format: functional
[28] = test system: HEp-2; assay: Antiproliferative activity against human Hep2 cells after 48 hrs by sulforhodamine B assay; format: functional, cell-based; conditions: HEp-2, 48 h

O=C(NO)N/N=C/c1ccc(O)c(O)c1O
IC50 [1]: 37.5 µM
IC50 [2]: 15.3 µM

Cc1c2ccccc2c(/C=N/NC(=O)NO)c2ccccc12
IC50 [3]: 6.5 µM
IC50 [1]: 9.3 µM
IC50 [2]: 8.9 µM

O=C(NO)N/N=C/c1ccc([N+](=O)[O-])s1
IC50 [1]: 27.2 µM
IC50 [2]: 28 µM

C(=N\Cc1ccco1)/c1c2ccccc2cc2ccccc12
CC50 [4]: 67.8 µM

CCC(C)C(/N=C1/c2c(O)cccc2Cc2cc(CO)cc(O)c21)C(=O)O (stereo unspecified)
EC50 [5]: 246 µM

CC(O)C(/N=C1/c2c(O)cccc2Cc2cc(CO)cc(O)c21)C(=O)O (stereo unspecified)
EC50 [5]: 339 µM

C/N=C/c1c(O)c(O)c(C(C)C)c2c1C(=O)C(C1=C(C)C(=O)c3c(c(/C=N/C)c(O)c(O)c3C(C)C)C1=O)=C(C)C2=O
IC50 ([6]; Homo sapiens, MCF7, 72 h): 0.1 µM
IC50 ([7]; Homo sapiens, KB, 72 h): 0.5 µM
IC50 ([8]; Homo sapiens, MCF7, 72 h): 0.4 µM

S=C(N/N=C(\c1ccccc1)c1ccccn1)SCc1ccccc1
IC50 [9]: 37 µM

O=C(O)C/N=C1/c2c(O)cccc2C([C@@H]2O[C@H](CO)[C@@H](O)[C@H](O)[C@H]2O)c2cc(CO)cc(O)c21 (stereo partly specified)
EC50 [5]: 408 µM

CC(/N=C1/c2c(O)cccc2C([C@@H]2O[C@H](CO)[C@@H](O)[C@H](O)[C@H]2O)c2cc(CO)cc(O)c21)C(=O)O (stereo partly specified)
EC50 [5]: 130 µM

O=C(O)C(Cc1ccccc1)/N=C1/c2c(O)cccc2C([C@@H]2O[C@H](CO)[C@@H](O)[C@H](O)[C@H]2O)c2cc(CO)cc(O)c21 (stereo partly specified)
EC50 [5]: 312 µM

CC(C)CC(/N=C1/c2c(O)cccc2C([C@@H]2O[C@H](CO)[C@@H](O)[C@H](O)[C@H]2O)c2cc(CO)cc(O)c21)C(=O)O (stereo partly specified)
EC50 [5]: 32 µM

CCC(C)C(/N=C1/c2c(O)cccc2C([C@@H]2O[C@H](CO)[C@@H](O)[C@H](O)[C@H]2O)c2cc(CO)cc(O)c21)C(=O)O (stereo partly specified)
EC50 [5]: 35.2 µM

Cc1cc(O)c2c(c1)C([C@@H]1O[C@H](CO)[C@@H](O)[C@H](O)[C@H]1O)c1cccc(O)c1/C2=N/C(CS)C(=O)O (stereo partly specified)
EC50 [5]: 10.2 µM

CSCCC(/N=C1/c2c(O)cccc2C([C@@H]2O[C@H](CO)[C@@H](O)[C@H](O)[C@H]2O)c2cc(CO)cc(O)c21)C(=O)O (stereo partly specified)
EC50 [5]: 404 µM

CC(C)C(/N=C1/c2c(O)cccc2C([C@@H]2O[C@H](CO)[C@@H](O)[C@H](O)[C@H]2O)c2cc(CO)cc(O)c21)C(=O)O (stereo partly specified)
EC50 [5]: 19.1 µM

CC(O)C(/N=C1/c2c(O)cccc2C([C@@H]2O[C@H](CO)[C@@H](O)[C@H](O)[C@H]2O)c2cc(CO)cc(O)c21)C(=O)O (stereo partly specified)
EC50 [5]: 27.6 µM

O=C(O)C/N=C1/c2c(O)cccc2Cc2cc(CO)cc(O)c21
EC50 [5]: 1030 µM

CC(/N=C1/c2c(O)cccc2Cc2cc(CO)cc(O)c21)C(=O)O (stereo unspecified)
EC50 [5]: 339 µM

O=C(O)C(Cc1ccccc1)/N=C1/c2c(O)cccc2Cc2cc(CO)cc(O)c21 (stereo unspecified)
EC50 [5]: 335 µM

CC(C)CC(/N=C1/c2c(O)cccc2Cc2cc(CO)cc(O)c21)C(=O)O (stereo unspecified)
EC50 [5]: 72.2 µM

Cc1cc(O)c2c(c1)Cc1cccc(O)c1/C2=N/C(CS)C(=O)O (stereo unspecified)
EC50 [5]: 423 µM

CSCCC(/N=C1/c2c(O)cccc2Cc2cc(CO)cc(O)c21)C(=O)O (stereo unspecified)
EC50 [5]: 836 µM

CC(C)C(/N=C1/c2c(O)cccc2Cc2cc(CO)cc(O)c21)C(=O)O (stereo unspecified)
EC50 [5]: 145 µM

Clc1ccc(/C=N/c2ccccc2)c(Cl)c1
IC50 [10]: 0.5 µM
IC50 [11]: 0.8 µM
IC50 [12]: 1.4 µM
IC50 [13]: 1.3 µM

Cc1ccc(/C=N/c2ccccc2)c(C)c1
IC50 [10]: 33 µM
IC50 [11]: 88.4 µM
IC50 [12]: 144 µM
IC50 [13]: 115 µM

C(=N\c1ccccc1)/c1ccc2c(c1)OCO2
IC50 [10]: 24.9 µM
IC50 [11]: 177 µM
IC50 [12]: 207 µM
IC50 [13]: 42.2 µM

Oc1ccccc1/C=N\CCn1cccn1
IC50 [14]: 715 µM
IC50 [15]: 522 µM

Oc1c(Cl)cc(Cl)cc1/C=N\CCn1cccn1
IC50 [14]: 32 µM
IC50 [15]: 39 µM
IC50 [16]: 27 µM
IC50 [17]: 26 µM

Oc1c(I)cc(I)cc1/C=N\CCn1cccn1
IC50 [14]: 34 µM
IC50 [15]: 32 µM
IC50 [16]: 20 µM
IC50 [17]: 25 µM

COc1ccc(/C=N/c2nc3ccccc3[nH]2)cc1
IC50 [18]: 183 µM
IC50 [19]: 179 µM

COc1ccc(/C=N/c2nc3ccccc3[nH]2)cc1OC
IC50 [18]: 154 µM
IC50 [19]: 106 µM

COc1cc(/C=N/c2nc3ccccc3[nH]2)cc(OC)c1OC
IC50 [18]: 50.4 µM
IC50 [19]: 52.4 µM

Brc1ccccc1/C=N/c1nc2ccccc2[nH]1
IC50 [18]: 26.3 µM
IC50 [19]: 35.3 µM

Brc1ccc(/C=N/c2nc3ccccc3[nH]2)cc1
IC50 [18]: 33.3 µM
IC50 [19]: 32 µM

Clc1ccccc1/C=N/c1nc2ccccc2[nH]1
IC50 [18]: 63.4 µM
IC50 [19]: 31.7 µM

Clc1cccc(/C=N/c2nc3ccccc3[nH]2)c1
IC50 [18]: 52.4 µM
IC50 [19]: 75.5 µM

O=[N+]([O-])c1ccc(/C=N/c2nc3ccccc3[nH]2)cc1
IC50 [18]: 87.1 µM
IC50 [19]: 88.3 µM

FC(F)(F)c1ccc(/C=N/c2nc3ccccc3[nH]2)cc1
IC50 [19]: 200 µM

Clc1cccc(/C=N\c2nsc3ccccc23)c1
IC50 [20]: 4 µM
IC50 [21]: 2 µM
IC50 [22]: 10 µM
IC50 [23]: 6 µM

COc1cccc(/C=N\c2nsc3ccccc23)c1O
IC50 [20]: 5 µM
IC50 [21]: 2 µM
IC50 [22]: 10 µM
IC50 [23]: 5 µM

COc1cc(/C=N\c2nsc3ccccc23)ccc1O
IC50 [20]: 4 µM
IC50 [21]: 2.5 µM
IC50 [22]: 10 µM
IC50 [23]: 5 µM

O=[N+]([O-])c1ccc(/C=N\c2nsc3ccccc23)o1
IC50 [20]: 5 µM
IC50 [21]: 2 µM
IC50 [24]: 6 µM
IC50 [22]: 6.5 µM
IC50 [25]: 10 µM
IC50 [23]: 2 µM

Cc1ccc2snc(/N=C\c3ccccc3O)c2c1
IC50 [20]: 3 µM
IC50 [21]: 2 µM
IC50 [22]: 6 µM
IC50 [23]: 5 µM

Cc1ccc2snc(/N=C\c3ccccc3Cl)c2c1
IC50 [20]: 3 µM
IC50 [21]: 1.5 µM
IC50 [22]: 5 µM
IC50 [23]: 3 µM

Cc1ccc2snc(/N=C\c3cccc(Cl)c3)c2c1
IC50 [20]: 4 µM
IC50 [21]: 1.5 µM
IC50 [22]: 7 µM
IC50 [23]: 2 µM

COc1ccc(/C=N\c2nsc3ccc(C)cc23)cc1
IC50 [20]: 4 µM
IC50 [21]: 1.5 µM
IC50 [22]: 6.5 µM
IC50 [23]: 4 µM

Oc1ccc(Br)cc1/C=N/Cc1cccs1
IC50 [26]: 9.1 µM
Ratio IC50 [27]: >2
IC50 [28]: 3.8 µM

O=[N+]([O-])c1ccc(/C=N/c2ccccc2)cc1
IC50 [10]: 123 µM
IC50 [11]: 1.6 µM
IC50 [12]: 2 µM
IC50 [13]: 165 µM

FC(F)(F)c1ccc(/C=N/c2ccccc2)cc1
IC50 [10]: 0.9 µM
IC50 [11]: 138 µM
IC50 [12]: 161 µM
IC50 [13]: 1.9 µM

O=C(NO)N/N=C/c1cc(Cl)cc(Cl)c1O
IC50 [1]: 22.2 µM
IC50 [2]: 21.2 µM

CSC(=S)N/N=C(\c1ccccc1)c1ccccn1
IC50 [9]: 35 µM

CC/N=C/c1c(O)c(O)c(C(C)C)c2cc(C)c(-c3c(C)cc4c(C(C)C)c(O)c(O)c(/C=N/CC)c4c3O)c(O)c12 (stereo in doubt; (+)-74)
IC50 ([6]; mcf7): 0.3 µM
IC50 ([7]; kb): 1.6 µM
IC50 ([8]; mcf7): 1 µM

CC/N=C/c1c(O)c(O)c(C(C)C)c2cc(C)c(-c3c(C)cc4c(C(C)C)c(O)c(O)c(/C=N/CC)c4c3O)c(O)c12 (stereo in doubt; (+/-)-74)
IC50 ([6]; mcf7): 0.4 µM
IC50 ([7]; kb): 1 µM
IC50 ([8]; mcf7): 5 µM

CC/N=C/c1c(O)c(O)c(C(C)C)c2cc(C)c(-c3c(C)cc4c(C(C)C)c(O)c(O)c(/C=N/CC)c4c3O)c(O)c12 (stereo in doubt; (-)-74)
IC50 ([6]; mcf7): 0.8 µM
IC50 ([7]; kb): 0.3 µM
IC50 ([8]; mcf7): 0.2 µM
